Assay type in all cases: functional
The subject of one experiment is Staphylococcus aureus. Kind of experiment: Antibacterial activity against Staphylococcus aureus 26003 after 24 hrs by agar dilution method. Background: Agar dilution tests growth on a series of plates holding different concentrations.
The test system of experiment [1] is Staphylococcus epidermidis. Nature of the experiment: Antibacterial activity against Staphylococcus epidermidis 26069 after 24 hrs by agar dilution method.
The next experiment deals with Streptococcus pneumoniae. Nature of the experiment: Antibacterial activity against Streptococcus pneumoniae 31002 after 24 hrs by agar dilution method.
The next experiment deals with Shigella boydii. Kind of experiment: Antibacterial activity against Shigella boydii 51313 after 24 hrs by agar dilution method.
A further experiment relates to Klebsiella pneumoniae. Nature of the experiment: Antibacterial activity against Klebsiella pneumoniae 46101 after 24 hrs by agar dilution method.
Another experiment relates to Salmonella. Nature of the experiment: Antibacterial activity against […] 48107 after 24 hrs by agar dilution method.

The values below come from ChEMBL document CHEMBL1137480, “Synthesis and structure-activity relationship of 7-(substituted)-aminomethyl-4-quinolone-3-carboxylic acid derivatives” (2007).

In brackets after ≈: the same amount, converted by molar mass.

For orientation: MIC means the lowest concentration that inhibits growth of the organism.

`CN1CCN(Cc2c(F)cc3c(=O)c(C(=O)O)cn(C4CC4)c3c2F)CC1`: the MIC against Staphylococcus aureus is 12.5 µg/mL (≈ 33.1 µM); in experiment [1] it was 12.5 µg/mL (≈ 33.1 µM); in the experiment on Streptococcus pneumoniae, 1.56 µg/mL (≈ 4.13 µM); against Shigella boydii it was 1.56 µg/mL (≈ 4.13 µM); against Klebsiella pneumoniae it was 1.56 µg/mL (≈ 4.13 µM); in the experiment with Salmonella, 1.56 µg/mL (≈ 4.13 µM).
`O=C(O)c1cn(C2CC2)c2c(F)c(CNC3CC3)c(F)cc2c1=O`: the MIC against Staphylococcus aureus was 3.13 µg/mL (≈ 9.36 µM); in experiment [1], 6.25 µg/mL (≈ 18.7 µM); in the experiment with Streptococcus pneumoniae, 0.195 µg/mL (≈ 0.583 µM); in the experiment on Shigella boydii, 0.098 µg/mL (≈ 0.293 µM); in the experiment on Klebsiella pneumoniae, no more than 0.049 µg/mL; with Salmonella it was 0.098 µg/mL (≈ 0.293 µM).
As to `CCCNCc1c(F)cc2c(=O)c(C(=O)O)cn(C3CC3)c2c1F`, the MIC in the experiment with Staphylococcus aureus is greater than 6.25 µg/mL; in experiment [1], greater than 6.25 µg/mL; in the experiment with Streptococcus pneumoniae it was 3.13 µg/mL (≈ 9.31 µM); against Shigella boydii, 0.195 µg/mL (≈ 0.58 µM); in the experiment with Klebsiella pneumoniae it was 0.39 µg/mL (≈ 1.16 µM); in the experiment with Salmonella it was 0.098 µg/mL (≈ 0.291 µM).
For `O=C(O)c1cn(C2CC2)c2c(F)c(CN3CCNCC3)c(F)cc2c1=O`, the MIC in the experiment on Staphylococcus aureus was 6.25 µg/mL (≈ 17.2 µM); in experiment [1], 6.25 µg/mL (≈ 17.2 µM); against Streptococcus pneumoniae, 6.25 µg/mL (≈ 17.2 µM); in the experiment on Shigella boydii, 0.78 µg/mL (≈ 2.15 µM); in the experiment with Klebsiella pneumoniae, 0.195 µg/mL (≈ 0.537 µM); against Salmonella it was 0.195 µg/mL (≈ 0.537 µM).
Consider `CCNCc1c(F)cc2c(=O)c(C(=O)O)cn(C3CC3)c2c1F`, for which the MIC against Staphylococcus aureus was greater than 6.25 µg/mL; in experiment [1] it was greater than 6.25 µg/mL; in the experiment on Streptococcus pneumoniae it was 0.78 µg/mL (≈ 2.42 µM); with Shigella boydii, no more than 0.049 µg/mL; with Klebsiella pneumoniae it was no more than 0.049 µg/mL; against Salmonella, 0.195 µg/mL (≈ 0.605 µM).
`O=C(O)c1cn(C2CC2)c2c(F)c(CNc3ccc(Cl)cc3)c(F)cc2c1=O`: the MIC against Staphylococcus aureus was 0.39 µg/mL (≈ 0.963 µM); in experiment [1], 1.56 µg/mL (≈ 3.85 µM); with Streptococcus pneumoniae, no more than 0.049 µg/mL; in the experiment with Shigella boydii, 1.56 µg/mL (≈ 3.85 µM); against Klebsiella pneumoniae, 1.56 µg/mL (≈ 3.85 µM); with Salmonella, 1.56 µg/mL (≈ 3.85 µM).
Regarding `O=C(O)c1cn(C2CC2)c2c(F)c(CNc3ccccc3)c(F)cc2c1=O`, the MIC was 0.78 µg/mL (≈ 2.11 µM) with Staphylococcus aureus; 1.56 µg/mL (≈ 4.21 µM) in experiment [1]; 0.049 µg/mL (≈ 0.132 µM) against Streptococcus pneumoniae; 0.39 µg/mL (≈ 1.05 µM) with Shigella boydii; 0.78 µg/mL (≈ 2.11 µM) against Klebsiella pneumoniae; 0.39 µg/mL (≈ 1.05 µM) with Salmonella.
With `CCCCNCc1c(F)cc2c(=O)c(C(=O)O)cn(C3CC3)c2c1F`, the MIC in the experiment on Staphylococcus aureus was greater than 6.25 µg/mL; in experiment [1] it was greater than 6.25 µg/mL; in the experiment on Streptococcus pneumoniae it was 3.13 µg/mL (≈ 8.93 µM); in the experiment with Shigella boydii, 0.39 µg/mL (≈ 1.11 µM); with Klebsiella pneumoniae it was no more than 0.049 µg/mL; against Salmonella, 0.195 µg/mL (≈ 0.557 µM).
As to `CC(C)CNCc1c(F)cc2c(=O)c(C(=O)O)cn(C3CC3)c2c1F`, the minimum inhibitory concentration (MIC) against Staphylococcus aureus is greater than 6.25 µg/mL; in experiment [1], greater than 6.25 µg/mL; against Streptococcus pneumoniae, 1.56 µg/mL (≈ 4.45 µM); in the experiment on Shigella boydii, 0.195 µg/mL (≈ 0.557 µM); in the experiment on Klebsiella pneumoniae, 0.098 µg/mL (≈ 0.28 µM); against Salmonella, no more than 0.049 µg/mL.
As for `O=C(O)c1cn(C2CC2)c2c(F)c(CNC3CCCCC3)c(F)cc2c1=O`, the minimal inhibitory concentration (MIC) against Staphylococcus aureus was greater than 6.25 µg/mL; in experiment [1], 6.25 µg/mL (≈ 16.6 µM); in the experiment on Streptococcus pneumoniae, 1.56 µg/mL (≈ 4.14 µM); in the experiment on Shigella boydii it was 0.78 µg/mL (≈ 2.07 µM); in the experiment on Klebsiella pneumoniae, 0.195 µg/mL (≈ 0.518 µM); against Salmonella, 0.195 µg/mL (≈ 0.518 µM).
For `C[C@H]1COc2c(N3CCN(C)CC3)c(F)cc3c(=O)c(C(=O)O)cn1c23.C[C@H]1COc2c(N3CCN(C)CC3)c(F)cc3c(=O)c(C(=O)O)cn1c23.O` [LEVOFLOXACIN], the MIC against Staphylococcus aureus amounted to 0.78 µg/mL; in experiment [1], 0.78 µg/mL; in the experiment with Streptococcus pneumoniae, 0.195 µg/mL; against Shigella boydii, 0.098 µg/mL; with Klebsiella pneumoniae it was 0.098 µg/mL; in the experiment with Salmonella, 0.098 µg/mL.
As for `C[C@H]1COc2c(C3(N)CC3)c(F)cc3c(=O)c(C(=O)O)cn1c23` [PAZUFLOXACIN], the minimum inhibitory concentration (MIC) was 0.195 µg/mL (≈ 0.613 µM) in the experiment on Staphylococcus aureus; 0.39 µg/mL (≈ 1.23 µM) in experiment [1]; 0.049 µg/mL (≈ 0.154 µM) against Streptococcus pneumoniae; 0.049 µg/mL (≈ 0.154 µM) against Shigella boydii; 0.049 µg/mL (≈ 0.154 µM) against Klebsiella pneumoniae; 0.049 µg/mL (≈ 0.154 µM) with Salmonella.
For the compound `CN[C@H](CC(C)C)C(=O)N[C@H]1C(=O)N[C@@H](CC(N)=O)C(=O)N[C@H]2C(=O)N[C@H]3C(=O)N[C@H](C(=O)N[C@H](C(=O)O)c4cc(O)cc(O)c4-c4cc3ccc4O)[C@H](O)c3ccc(c(Cl)c3)Oc3cc2cc(c3O[C@@H]2O[C@H](CO)[C@@H](O)[C@H](O)[C@H]2O[C@H]2C[C@](C)(N)[C@H](O)[C@H](C)O2)Oc2ccc(cc2Cl)[C@H]1O` [VANCOMYCIN], the minimal inhibitory concentration (MIC) in the experiment with Staphylococcus aureus is 0.39 µg/mL (≈ 0.269 µM); in experiment [1], 0.78 µg/mL (≈ 0.538 µM); against Streptococcus pneumoniae it was 0.098 µg/mL (≈ 0.0676 µM); against Shigella boydii, greater than 6.25 µg/mL; with Klebsiella pneumoniae, greater than 6.25 µg/mL; in the experiment on Salmonella, greater than 6.25 µg/mL.
